Results taken from PubChem BioAssay (NCI).
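Step 1: Grow cells in 96-well plates. Step 2: Expose to compound for 48 hours at 5 concentrations. Step 3: Interpolate endpoints linearly; if unreached, use highest concentration. GI50: concentration for 50% inhibition of growth. At the TGI there is no net growth.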

What was measured:
Assay in all cases: growth of human tumour cells (NCI), 48 h
[1] = system: PC-3 prostate
[2] = system: UACC-257 melanoma
[3] = system: T-47D breast
[4] = system: CAKI-1 renal
[5] = system: HL-60(TB) leukemia
[6] = system: K-562 leukemia
[7] = system: OVCAR-5 ovarian
[8] = system: CCRF-CEM leukemia
[9] = system: LOX IMVI melanoma
[10] = system: MALME-3M melanoma

Compound | GI50 [1] | TGI [1] | GI50 [2] | TGI [2] | GI50 [3] | TGI [3] | GI50 [4] | TGI [4] | GI50 [5] | TGI [5] | GI50 [6] | TGI [6] | GI50 [7] | TGI [7] | GI50 [8] | TGI [8] | GI50 [9] | TGI [9] | GI50 [10] | TGI [10]
CCC[CH2][Sn]([CH2]CCC)([O]C(=O)c1cc(F)ccc1F)[O][Sn]([CH2]CCC)([CH2]CCC)[O]C(=O)c1cc(F)ccc1F | 0.759 µM | 2.01 µM | 0.255 µM | 1.21 µM | 0.0222 µM | 0.207 µM | 0.129 µM | 0.621 µM | 0.139 µM | 2.6 µM | 0.0372 µM | 6.22 µM | 1.76 µM | 3.16 µM | 0.0113 µM | 2.7 µM | 0.132 µM | 0.306 µM | 0.125 µM | 0.339 µM
C/C=C/C/C=C/CCC(=O)[C@H]1O[C@H]1C(N)=O | – | 40.7 µM | 13.1 µM | 27.3 µM | 13.7 µM | 34 µM | 13.4 µM | 36.5 µM | 5.19 µM | 25.2 µM | 19 µM | > 86.8 µM | 16.8 µM | 31.4 µM | 6.02 µM | 62.3 µM | 8.38 µM | 21.5 µM | 13.7 µM | 32.9 µM
Fc1ccc(-c2nn3c(-c4ccc(F)c(Cl)c4)nnc3s2)cc1 | 29.1 µM | > 50 µM | 10.6 µM | 41.6 µM | 34.8 µM | > 50 µM | 26 µM | > 50 µM | 27.4 µM | > 50 µM | 34.3 µM | > 50 µM | > 50 µM | > 50 µM | 5.52 µM | 17.8 µM | 32.8 µM | > 50 µM | > 50 µM | > 50 µM
CCOc1ccccc1NC(=O)c1cc2ccccc2cc1O | 2.73 µM | 10.1 µM | 2.23 µM | 5.98 µM | 2.67 µM | 14.5 µM | 3.45 µM | 12.6 µM | 2.31 µM | 5.47 µM | 3.28 µM | 14.1 µM | 7.06 µM | 27.7 µM | 2.58 µM | 32.9 µM | 3.28 µM | 11.2 µM | 2.3 µM | 10.2 µM
Cn1cc(C2=C(c3cn(CCO)c4ccccc34)C(=O)NC2=O)c2ccccc21 | 4.59 µM | > 25 µM | 4.75 µM | 22.6 µM | 3.96 µM | 13.1 µM | 3.79 µM | > 24.1 µM | 1.12 µM | 6.36 µM | 1.12 µM | > 25 µM | 10.9 µM | > 25 µM | 1.37 µM | > 20 µM | 2.77 µM | > 25 µM | 6.9 µM | 17.5 µM
Nc1ccccc1-c1ccc([N+](=O)[O-])cc1 | 15 µM | > 100 µM | 21.1 µM | > 100 µM | 3.04 µM | > 100 µM | 1.71 µM | > 100 µM | 2.93 µM | 26.1 µM | 1.32 µM | > 100 µM | 31.8 µM | > 100 µM | 2.31 µM | > 100 µM | 37.4 µM | > 100 µM | 16.5 µM | > 100 µM
Cc1nc(-c2ccccc2)c(Cc2ccccc2O)c(=O)[nH]1 | – | > 100 µM | – | > 100 µM | – | > 100 µM | – | > 100 µM | – | > 100 µM | – | > 100 µM | – | > 100 µM | – | > 100 µM | – | > 100 µM | – | > 100 µM
Clc1ccc(/C=C/c2cc(N3CCOCC3)c3cc(Cl)c(Cl)cc3n2)cc1 | 1.61 µM | > 100 µM | > 100 µM | > 100 µM | > 100 µM | > 100 µM | > 100 µM | > 100 µM | 0.339 µM | > 100 µM | > 100 µM | > 100 µM | > 100 µM | > 100 µM | 0.302 µM | > 51 µM | > 100 µM | > 100 µM | > 100 µM | > 100 µM
O=c1c2c3c(sc2n2c(-c4cc(-c5ccccc5)no4)nnc2n1Cc1ccccc1)CCCC3 | 9.19 µM | > 100 µM | 23.9 µM | > 74 µM | 3.55 µM | 22.1 µM | 10.2 µM | 61.5 µM | 4.65 µM | 29.9 µM | 7.01 µM | > 68.1 µM | 91.2 µM | > 100 µM | 3.22 µM | > 37.7 µM | 7.76 µM | > 62.4 µM | 32.1 µM | 97.3 µM
CCCc1cc(O)c2c3c(c(=O)oc2c1)CN(C)CC3 | > 100 µM | > 100 µM | 26.1 µM | > 100 µM | 37.8 µM | > 100 µM | > 100 µM | > 100 µM | 50.2 µM | > 100 µM | 31.8 µM | > 100 µM | > 100 µM | > 100 µM | 69.1 µM | > 100 µM | 76.2 µM | > 100 µM | 35.1 µM | > 100 µM
Cc1cc2cc3cc(C)c(N(C)C)cc3[n+](C)c2cc1N(C)C | 2.46 µM | 33.8 µM | 4.73 µM | 37.7 µM | 2.94 µM | > 100 µM | 2.7 µM | > 100 µM | 3.22 µM | > 100 µM | 3.14 µM | > 100 µM | 11.9 µM | > 100 µM | 12.2 µM | > 100 µM | 3.14 µM | 40.8 µM | 3.6 µM | 19.4 µM
CC/C(=C(/c1ccc(OCCN(C)C)cc1)c1ccc(OC(=O)CCC(=O)c2c(C)[nH]c(/C=C3\N=C(c4ccc[nH]4)C=C3OC)c2C)cc1)c1ccccc1 | 1.78 µM | 17.1 µM | 3.38 µM | 14.7 µM | 1.34 µM | 7.79 µM | 2.66 µM | 16 µM | 3.13 µM | 8.8 µM | 2.32 µM | 6.37 µM | 5.75 µM | 21.6 µM | 0.435 µM | 6.34 µM | 0.456 µM | 1.69 µM | 2.68 µM | 6.35 µM
Oc1ccc(CN2CCC(N3CCOCC3)CC2)c2cccnc12 | 46.2 µM | > 100 µM | 32.3 µM | 76.5 µM | 35.5 µM | > 100 µM | 29.2 µM | > 100 µM | 22.7 µM | 51 µM | 28.1 µM | > 100 µM | 86.9 µM | > 100 µM | 23.8 µM | > 100 µM | 29.9 µM | > 100 µM | 29.1 µM | > 100 µM
CC(C)Nc1ccc(Nc2ccccc2)cc1 | 9.2 µM | 31.3 µM | 15.6 µM | 31.5 µM | 15.5 µM | 38.8 µM | 4.06 µM | 17.4 µM | 17.7 µM | 51.3 µM | 15.6 µM | 52.5 µM | 24.6 µM | 57.1 µM | 12.5 µM | > 100 µM | 13.1 µM | 29.1 µM | 14.9 µM | 43.2 µM
CC(C)[C@H]1CC[C@H]2[C@@H](CC[C@H]3[C@](C)(CN)CCC[C@]23C)C1 | 2.36 µM | 7.14 µM | 2.68 µM | 6.02 µM | 1.96 µM | 4.52 µM | 1.71 µM | 4.2 µM | 1.8 µM | 4.23 µM | 2.25 µM | 5.31 µM | 1.73 µM | 3.44 µM | 3.42 µM | 12.8 µM | 1.61 µM | 2.98 µM | 2.48 µM | 7.47 µM
N#Cc1ncc(-c2ccc(C(F)(F)F)cc2)c(NCc2cc(C(F)(F)F)cc(C(F)(F)F)c2)n1 | 2.42 µM | 8.48 µM | 3.06 µM | 9.92 µM | 3.35 µM | > 100 µM | 3.6 µM | 61.9 µM | 2.36 µM | 5.76 µM | 3.74 µM | > 100 µM | 8.9 µM | > 100 µM | 2.26 µM | 49.8 µM | 3.02 µM | 16.5 µM | 2.98 µM | 8.89 µM
